Source: ChEMBL document CHEMBL3885861, “Open TG-GATES”

Organism: Rattus norvegicus
Assay: Open TG-GATES - Regimen: Single
Type: toxicity, organism-based, Sprague-Dawley
Design: regimen Single, gender Male, age 6 weeks
Details: in vivo, sc, 0.2 mg/kg, route subcutaneous injection, dose 200 ug/Kg, dose level Middle; for APTT / Bas / Eos / Fbg / Hb / Ht / Lym / MCH / MCHC / MCV / Mono / Neu / PT / Plat / RBC / Ret / WBC: tissue Blood; for KIDNEY_L / KIDNEY_R / KIDNEY_TOTAL: tissue Kidney; for LIVER: tissue Liver; for A/G / ALP / ALT / AST / BUN / CRE / Ca / Cl / DBIL / GLC / IP / K / LDH / Na / PL / RALB / TBIL / TC / TG / TP / gamma-GTP: tissue Plasma

In the case of `CC(=O)O.N=C(N)NCCC[C@@H](NC(=O)[C@@H]1CCCN1C(=O)[C@@H]1CSSCCC(=O)N[C@@H](Cc2ccc(O)cc2)C(=O)N[C@@H](Cc2ccccc2)C(=O)N[C@@H](CCC(N)=O)C(=O)N[C@@H](CC(N)=O)C(=O)N1)C(=O)NCC(N)=O` [DESMOPRESSIN ACETATE], the TERMINAL_BW (3 h) is reported as 206.2 g, the APTT (3 h) is reported as 17.6 s and the Bas (3 h) is reported as 0%. It also gave an Eos (3 h) of 1%, a Fbg (3 h) of 256.3 mg/dL and a Hb (3 h) of 12.8 g/dL. It also gave a Ht (3 h) of 39.6%, a Lym (3 h) of 71.8% and an MCH (3 h) of 21.1 pg. For the same compound, the MCHC (3 h) was 32.3%, the MCV (3 h) was 65.1 fL and the Mono (3 h) was 7.6%. For the same compound, the Neu (3 h) was 19.6%, the PT (3 h) was 12.2 s and the Plat (3 h) was 112.4 x10_4/uL. It also gave an RBC (3 h) of 609.4 x10_4/ul, a Ret (3 h) of 8.8% and a WBC (3 h) of 77 x10_2/uL. It also gave a KIDNEY_L (3 h) of 0.9 g, a KIDNEY_R (3 h) of 1 g and a KIDNEY_TOTAL (3 h) of 1.9 g. For the same compound, the LIVER (3 h) was 9.9 g, the A/G (3 h) was 2 and the ALP (3 h) was 1405.8 IU/L. For the same compound, the ALT (3 h) was 44.4 IU/L, the AST (3 h) was 81.2 IU/L and the BUN (3 h) was 23.8 mg/dL. The CRE (3 h) was 0.4 mg/dL, the Ca (3 h) was 11.8 mg/dL and the Cl (3 h) was 101 meq/L. For the same compound, the DBIL (3 h) was 0.012 mg/dL, the GLC (3 h) was 205.6 mg/dL and the IP (3 h) was 10.8 mg/dL. For the same compound, the K (3 h) was 4.6 meq/L, the LDH (3 h) was 272.6 IU/L and the Na (3 h) was 134.6 meq/L. It also gave a PL (3 h) of 145.8 mg/dL, an RALB (3 h) of 3.8 g/dL and a TBIL (3 h) of 0.05 mg/dL. It also gave a TC (3 h) of 77 mg/dL, a TG (3 h) of 99.8 mg/dL and a TP (3 h) of 5.7 g/dL. For the same compound, the gamma-GTP (3 h) was 0.8 IU/L, the TERMINAL_BW (6 h) was 205.6 g and the APTT (6 h) was 18.4 s. For the same compound, the Bas (6 h) was 0%, the Eos (6 h) was 1.6% and the Fbg (6 h) was 244.6 mg/dL. It also gave a Hb (6 h) of 13 g/dL, a Ht (6 h) of 39.7% and a Lym (6 h) of 71.8%. For the same compound, the MCH (6 h) was 21.4 pg, the MCHC (6 h) was 32.8% and the MCV (6 h) was 65.3 fL. The Mono (6 h) was 8.8%, the Neu (6 h) was 18% and the PT (6 h) was 12.5 s. The Plat (6 h) was 124.8 x10_4/uL, the RBC (6 h) was 609.4 x10_4/ul and the Ret (6 h) was 8.7%. The WBC (6 h) was 102.8 x10_2/uL, the KIDNEY_L (6 h) was 1 g and the KIDNEY_R (6 h) was 1 g. For the same compound, the KIDNEY_TOTAL (6 h) was 2 g, the LIVER (6 h) was 9.6 g and the A/G (6 h) was 2.1. The ALP (6 h) was 1316 IU/L, the ALT (6 h) was 34.8 IU/L and the AST (6 h) was 63.2 IU/L. The BUN (6 h) was 27.4 mg/dL, the CRE (6 h) was 0.3 mg/dL and the Ca (6 h) was 10.9 mg/dL. For the same compound, the Cl (6 h) was 101 meq/L, the DBIL (6 h) was 0.016 mg/dL and the GLC (6 h) was 200.6 mg/dL. It also gave an IP (6 h) of 10.3 mg/dL, a K (6 h) of 4.6 meq/L and an LDH (6 h) of 127.6 IU/L. The Na (6 h) was 135.4 meq/L, the PL (6 h) was 155.6 mg/dL and the RALB (6 h) was 3.7 g/dL. For the same compound, the TBIL (6 h) was 0.064 mg/dL, the TC (6 h) was 84.2 mg/dL and the TG (6 h) was 76.2 mg/dL. The TP (6 h) was 5.5 g/dL, the gamma-GTP (6 h) was 1 IU/L and the TERMINAL_BW (9 h) was 199.6 g. The APTT (9 h) was 17.9 s, the Bas (9 h) was 0% and the Eos (9 h) was 1.2%. The Fbg (9 h) was 239.4 mg/dL, the Hb (9 h) was 13.3 g/dL and the Ht (9 h) was 41%. It also gave a Lym (9 h) of 74.4%, an MCH (9 h) of 21.4 pg and an MCHC (9 h) of 32.4%. The MCV (9 h) was 66.2 fL, the Mono (9 h) was 7.4% and the Neu (9 h) was 17%. It also gave a PT (9 h) of 12.5 s, a Plat (9 h) of 112.4 x10_4/uL and an RBC (9 h) of 620 x10_4/ul. For the same compound, the Ret (9 h) was 9.2%, the WBC (9 h) was 93.8 x10_2/uL and the KIDNEY_L (9 h) was 1 g. The KIDNEY_R (9 h) was 1 g, the KIDNEY_TOTAL (9 h) was 2.1 g and the LIVER (9 h) was 8.4 g. The A/G (9 h) was 2, the ALP (9 h) was 1325.8 IU/L and the ALT (9 h) was 31 IU/L. For the same compound, the AST (9 h) was 60.4 IU/L, the BUN (9 h) was 28.4 mg/dL and the CRE (9 h) was 0.3 mg/dL. For the same compound, the Ca (9 h) was 11.2 mg/dL, the Cl (9 h) was 102.6 meq/L and the DBIL (9 h) was 0.016 mg/dL. The GLC (9 h) was 195.6 mg/dL, the IP (9 h) was 10.6 mg/dL and the K (9 h) was 5.4 meq/L. It also gave an LDH (9 h) of 104.4 IU/L, a Na (9 h) of 135.4 meq/L and a PL (9 h) of 144 mg/dL. It also gave an RALB (9 h) of 3.7 g/dL, a TBIL (9 h) of 0.068 mg/dL and a TC (9 h) of 84 mg/dL. It also gave a TG (9 h) of 50.2 mg/dL, a TP (9 h) of 5.5 g/dL and a gamma-GTP (9 h) of 0.8 IU/L. It also gave a TERMINAL_BW (24 h) of 218.4 g, an APTT (24 h) of 16.7 s and a Bas (24 h) of 0%. For the same compound, the Eos (24 h) was 1%, the Fbg (24 h) was 245.4 mg/dL and the Hb (24 h) was 12.6 g/dL. For the same compound, the Ht (24 h) was 38.9%, the Lym (24 h) was 77.4% and the MCH (24 h) was 21.1 pg. For the same compound, the MCHC (24 h) was 32.4%, the MCV (24 h) was 65.3 fL and the Mono (24 h) was 6.4%. It also gave a Neu (24 h) of 15%, a PT (24 h) of 12.3 s and a Plat (24 h) of 123 x10_4/uL. The RBC (24 h) was 596.6 x10_4/ul, the Ret (24 h) was 10.6% and the WBC (24 h) was 103.4 x10_2/uL. For the same compound, the KIDNEY_L (24 h) was 1 g, the KIDNEY_R (24 h) was 1 g and the KIDNEY_TOTAL (24 h) was 2 g. The LIVER (24 h) was 10.2 g, the A/G (24 h) was 2 and the ALP (24 h) was 1597.6 IU/L. For the same compound, the ALT (24 h) was 40.2 IU/L, the AST (24 h) was 69.8 IU/L and the BUN (24 h) was 19.8 mg/dL. The CRE (24 h) was 0.4 mg/dL, the Ca (24 h) was 11.1 mg/dL and the Cl (24 h) was 103.6 meq/L. It also gave a DBIL (24 h) of 0 mg/dL, a GLC (24 h) of 197.4 mg/dL and an IP (24 h) of 8.5 mg/dL. It also gave a K (24 h) of 5.3 meq/L, an LDH (24 h) of 156.4 IU/L and a Na (24 h) of 137.2 meq/L. It also gave a PL (24 h) of 157 mg/dL, an RALB (24 h) of 3.6 g/dL and a TBIL (24 h) of 0.022 mg/dL. The TC (24 h) was 90.6 mg/dL, the TG (24 h) was 93 mg/dL and the TP (24 h) was 5.5 g/dL. It also gave a gamma-GTP (24 h) of 1.8 IU/L.
